The results in this text go back to US20150126464A1, “THERAPEUTIC DRUG AND THERAPEUTIC METHOD FOR NEUROLOGICAL DISEASES INCLUDING ALZHEIMER'S DISEASE ASSOCIATED WITH 1,25D3-MARRS” (priority 2013, published 2015).

Molecules are shown by their SMILES. Where only a bound is given, the exact number is not on record here.

The test system of series [1] is normal mice. Nature of the series: Location recognition test in normal mice. Type of series: in vivo, mouse. The settings on record: diosgenin i.p. 7 days, 48 hours training-test interval. How it is done:
(§1) Diosgenin (Wako Pure Chemical Industries, Ltd., Osaka, Japan) was dissolved in ethanol at 10 times the final concentration to give a stock solution, and the stock solution was diluted in a 5% aqueous solution of glucose to the final concentration. The diosgenin solution was intraperitoneally administered to normal mice (ddY mice, male, 6 weeks old) once a day (10 μmol/kg/day) for 5 or 6 days. One hour after the last administration, each mouse was housed in a separate open-field box made of polyvinyl chloride (33 cm×28 cm; height: 26.5 cm), habituated to the environment for 10 minutes, and used in the test.
Intraperitoneal administration to the mice of Example 2 and Comparative Example 3 was performed for 7 days. One hour after the last administration, a location recognition test was performed to evaluate the spatial recognition memory. Testing was carried out in a dimly illuminated room (100 lux). The test was performed as described in Tohda, C. et al., Br J Pharmacol. 157, 1427-1440, 2009, written by the inventor and others, except that the time interval between a training session and a test session was 48 hours. As a locomotion index, the path of each mouse was tracked using a digital camera system. The distance each mouse traveled during the 10 minutes was analyzed as locomotion activity with EthoVision 3.0 (Noldus, Wageningen, The Netherlands).

Series [2] concerns the target T1, 1,25D3-MARRS (Mus musculus, UniProt P27773).
T1 construct: endogenous in cells; host or cells: mouse cortical neuron primary culture (ddY, E14), cell lysate
T1 sequence (P27773 25-505): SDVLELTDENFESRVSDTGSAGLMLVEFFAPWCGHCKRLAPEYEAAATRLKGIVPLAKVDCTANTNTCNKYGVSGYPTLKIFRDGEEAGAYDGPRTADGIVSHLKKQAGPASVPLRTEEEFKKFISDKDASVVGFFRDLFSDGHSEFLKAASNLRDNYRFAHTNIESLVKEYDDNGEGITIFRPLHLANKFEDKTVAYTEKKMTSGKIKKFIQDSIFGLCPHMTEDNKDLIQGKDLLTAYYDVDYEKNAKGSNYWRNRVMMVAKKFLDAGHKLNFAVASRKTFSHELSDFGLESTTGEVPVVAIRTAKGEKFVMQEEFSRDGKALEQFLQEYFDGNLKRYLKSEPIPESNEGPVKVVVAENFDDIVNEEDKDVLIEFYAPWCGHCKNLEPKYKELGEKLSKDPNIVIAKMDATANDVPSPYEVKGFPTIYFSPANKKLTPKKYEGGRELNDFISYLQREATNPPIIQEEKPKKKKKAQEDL
Nature of the series: Identification of the target protein for diosgenin (thermolysin proteolysis of lysate, LC/MS/MS). The settings on record: mouse cortical neuron lysate, band thicker than in vehicle-treated lysate. The series is classed as binding. The method, then:
A mouse cortical neuron primary culture (ddY, E14) was maintained for 24 hours without any drug treatment. The cells were lysed with M-PER (Thermo Scientific) supplemented with protease and phosphatase inhibitors. After centrifugation (20,000×g) for 15 minutes, the protein concentration of the lysates was determined using Quick Start (Bio-Rad Laboratories, Hercules, Calif., USA). The cell lysate (5.6 μg each) was added to 2 μL of a vehicle solution of 10 mM diosgenin and incubated at 4° C. for 30 minutes. The mixture was proteolyzed using 7.5 μg of thermolysin in a reaction buffer [50 mM Tris-HCl (pH 8.0), 50 mM NaCl, and 10 mM CaCl2] at room temperature for 10 minutes. To stop the proteolysis, 0.5 M EDTA (pH 8.0) was added to each sample at a ratio of 1:10. The samples were then mixed well and placed on ice. The reaction samples were electrophoresed using a 5 to 20% real gel plate (Bio Craft, Tokyo, Japan). The separated proteins were stained using a negative gel stain MS kit (Wako). The bands in the diosgenin-treated lysate that were thicker than those in the vehicle-treated lysate were cut out and prepared for mass spectrometry analysis. After alkylation using iodoacetamide and in-gel digestion by trypsin, the supernatants were analyzed by nano-LC/MS/MS using LTQ Orbitrap XL (ThermoFisher). […]

The subject of series [3] is normal mice. Nature of the series: Novel object recognition test in normal mice. The series is classed as in vivo, mouse. How it is done:
as §1
Using the mice of Example 8 and Comparative Example 11, a novel object recognition test was performed to evaluate the object recognition memory. Testing was carried out in a dimly illuminated room (100 lux). The test was performed as described in Joyashiki, E. et sl., Int J Neurosci, 121, 181-190, 2011 and Tohda, C. et al., Int J Neurosci, 121, 641-648, 2011, written by the inventors and others, except that the time interval between a training session and a test session was 48 hours. As a locomotion index, the path of each mouse was tracked using a digital camera system. The distance each mouse traveled during the 10 minutes was analyzed as locomotion activity with EthoVision 3.0 (Noldus, Wageningen, The Netherlands).
The diosgenin solution was intraperitoneally administered to normal mice (C57BL/6, male, 8 weeks old) (100 μmol/kg/day) for 14 days. On the day after the 14th administration, the mice were used in the test.
Using the mice of Example 9 and Comparative Example 12, the novel object recognition test was performed. The test was performed under the conditions as described above.
Dioscin in an amount of 30 μmol/kg/day was orally administered to normal mice (ddY mice, male, 6 weeks old) for 4 days. Dioscin (Chromadex, Irvine, Calif., USA) was dissolved in ethanol at 10 times the final concentration to give a stock solution, and the stock solution was diluted in a 5% aqueous solution of glucose to the final concentration. […]

The subject of series [4] is normal mice. Description: Measurement of spontaneous motor activity. Type of series: in vivo, mouse. The settings on record: normal ddY mice, diosgenin 10 μmol/kg/day i.p., vs vehicle. How it is done:
as §1
The spontaneous motor activity was evaluated based on the distance each mouse traveled in an open field during 10 minutes.

In the case of `C[C@@H]1CC[C@@]2(OC1)O[C@H]1C[C@H]3[C@@H]4CC=C5C[C@@H](O)CC[C@]5(C)[C@H]4CC[C@]3(C)[C@H]1[C@@H]2C` [diosgenin], the “frequency of exploratory behavior for the object moved to a new location” value in series [1] is listed as > 50%. For the same compound, the “direct target protein identified” value in series [2] was “direct target protein of diosgenin was 1,25D3-MARRS”. Besides, in series [3] (normal C57BL/6 mice, diosgenin 100 μmol/kg/day i.p. 14 days), the object recognition memory result is on record as “significantly improved”. The “behavior index of exploratory behavior for the novel object” value in series [3] (normal ddY mice, diosgenin 10 μmol/kg/day i.p. 5 or 6 days, 48 hours training-test interval) is “higher than 50%”. The “spontaneous motor activity (distance traveled in an open field during 10 minutes)” value in series [4] is listed as “no significant difference”.
